Test: xn = mol fraction of the nth substance listed
Details: 101 kPa, Liquid; for viscosity: Concentric cylinders viscometry; for mass density: Vibrating tube method

COC(C)(C)C [2-methoxy-2-methylpropane] + CCCO
Details | mass density, 303.15 K [kg/m3] | mass density, 308.15 K [kg/m3] | viscosity, 303.15 K [mPa·s] | viscosity, 308.15 K [mPa·s]
x1 = 0.0126 | 794.86 | 790.76 | 1.676 | 1.494
x1 = 0.0219 | 794.13 | 790.02 | 1.631 | 1.456
x1 = 0.0298 | 793.53 | 789.4 | 1.594 | 1.424
x1 = 0.0403 | 792.61 | 788.45 | 1.548 | 1.386
x1 = 0.05 | 791.93 | 787.77 | 1.502 | 1.347
x1 = 0.0599 | 791.21 | 787.04 | 1.462 | 1.309
x1 = 0.0699 | 790.47 | 786.28 | 1.429 | 1.276
x1 = 0.0798 | 789.92 | 785.72 | 1.391 | 1.252
x1 = 0.09 | 788.85 | 784.63 | 1.338 | 1.203
x1 = 0.1003 | 788.08 | 783.85 | 1.301 | 1.181
x1 = 0.1495 | 784.61 | 780.3 | 1.151 | 1.042
x1 = 0.1999 | 780.94 | 776.55 | 1.016 | 0.9225
x1 = 0.25 | 777.38 | 772.92 | 0.9045 | 0.8231
x1 = 0.3003 | 773.84 | 769.32 | 0.809 | 0.7398
x1 = 0.35 | 770.45 | 765.85 | 0.7291 | 0.6694
x1 = 0.4015 | 766.99 | 762.32 | 0.6608 | 0.6082
x1 = 0.4585 | 763.21 | 758.45 | 0.5966 | 0.5495
x1 = 0.5002 | 760.49 | 755.68 | 0.5568 | 0.5119
x1 = 0.5505 | 757.3 | 752.42 | 0.5121 | 0.4715
x1 = 0.5994 | 754.28 | 749.34 | 0.4831 | 0.4457
x1 = 0.6475 | 751.27 | 746.28 | 0.4499 | 0.4153
x1 = 0.7026 | 747.92 | 742.86 | 0.4145 | 0.3818
x1 = 0.7536 | 744.86 | 739.74 | 0.3944 | 0.3602
x1 = 0.8033 | 741.89 | 736.72 | 0.3655 | 0.3345
x1 = 0.8471 | 739.24 | 734.04 | 0.3506 | 0.3255
x1 = 0.9007 | 736.06 | 730.79 | 0.3303 | 0.308
x1 = 0.9107 | 735.41 | 730.13 | 0.3277 | 0.302
x1 = 0.9185 | 734.94 | 729.65 | 0.3317 | 0.3014
x1 = 0.9282 | 734.37 | 729.07 | 0.3205 | 0.2934
x1 = 0.94 | 733.65 | 728.34 | 0.3153 | 0.295
x1 = 0.9493 | 733.09 | 727.78 | 0.3106 | 0.2879
x1 = 0.9599 | 732.47 | 727.15 | 0.3102 | 0.2939
x1 = 0.9698 | 731.91 | 726.58 | 0.3092 | 0.2843
x1 = 0.9796 | 731.35 | 726.01 | 0.3054 | 0.2803
x1 = 0.9882 | 730.84 | 725.49 | 0.3046 | 0.2819

From the NIST ThermoML archive (doi:10.1016/j.jct.2011.02.018)
